From patent publication US10143691B2, “Pathogenic control of apoptosis” (CSIR, priority 2014, dated 2018) come the findings set out here.

“Also recorded” adds a separate entry of the source.

Common to all, as to assay type: cell-based
One assay concerns hnRNP-K. As to the kind of experiment: Immunofluorescence of hnRNP-K cellular location in Ghost(3) cells. How it is done: (§1) For each experiment, Ghost(3) cells or IPSC-derived primary macrophages were infected or treated with 500 nM Doxorubicin on coverslips, fixed for 10 mins in fresh 4% paraformaldehyde at room temperature, then washed 3 times in PBS and permeabilised for 10 mins in ice-cold methanol at […]. Coverslips were washed once in PBS and incubated in blocking buffer (5% goat serum, 0.3% TritonX100 in PBS) for 60 mins at room temperature. Cells were incubated in primary antibody solution (1% BSA, 0.3% Triton X100 in PBS) overnight at 4° C. Double strand breaks were detected using rabbit polyclonal anti-phosphohistone H2A.X Ser139 (Cell Signaling). Activated ATM was detected using rabbit monoclonal anti-phosphoATM Ser1981 (Cell Signaling). The ability of p53 to regulate apoptosis was detected using rabbit polyclonal antiphosphop53 Ser46 (Cell Signaling). Viral p24 was detected using mouse monoclonal anti-HIV1p24 (AIDS Research and Reference Reagent Program, Division of AIDS, NIAID, NIH). HuR was detected using mouse monoclonal anti-HuR 3A2 (Santa Cruz Biotechnology). hnRNPK was detected using goat polyclonal anti-hnRNPK P20 (Santa Cruz Biotechnology). Coverslips were washed 3 times (5 mins each on an orbital shaker) with wash buffer (0.05% Tween20 in PBS), followed by incubation with secondary antibodies conjugated to either Atto550 or Atto565 or Atto647 for 60 mins at room temperature. Coverslips were washed 3 times (5 mins each on an orbital shaker) with wash buffer (0.05% Tween20 in PBS). Coverslips were incubated in equilibration buffer (0.4% glucose, 2×SCC) for 5 mins and counter stained with 1 mg/ml DAPI (4′,6-diamidino-2-phenylindole; Life Technologies). Coverslips were mounted in glox buffer (3.7 mg/ml glucose oxidase, 1 U catalase) and imaged.
For each experiment, cells were infected or treated with drugs on coverslips, fixed for 10 mins in fresh 4% paraformaldehyde at room temperature, then washed 3 times in PBS and permeabilised for 10 mins in ice-cold methanol at −20° C. Coverslips were washed once in PBS and incubated in blocking buffer (5% goat serum, 0.3% Triton-X100 in PBS) for 60 mins at room temperature. Cells were incubated in primary antibody solution (1% BSA, 0.3% Triton X-100 in PBS) overnight at 4° C. Double strand breaks were detected using rabbit polyclonal anti-phospho-histone H2A.X Ser139 (Cell Signaling). Activated ATM was detected using rabbit monoclonal anti-phospho-ATM Ser1981 (Cell Signaling). The ability of p53 to regulate apoptosis was detected using rabbit polyclonal anti-phospho-p53 Ser46 (Cell Signaling). Viral p24 was detected using mouse monoclonal anti-HIV-1-p24 (AIDS Research and Reference Reagent Program, Division of AIDS, NIAID, NIH). HuR was detected using mouse monoclonal anti-HuR 3A2 (Santa Cruz Biotechnology). hnRNP-K was detected using goat polyclonal anti-hnRNP-K P-20 (Santa Cruz Biotechnology). Coverslips were washed 3 times (5 mins each on an orbital shaker) with wash buffer (0.05% Tween-20 in PBS), followed by incubation with secondary antibodies conjugated to either Atto-550 or Atto-565 or Atto-647 for 60 mins at room temperature. Coverslips were washed 3 times (5 mins each on an orbital shaker) with wash buffer (0.05% Tween-20 in PBS). Coverslips were incubated in equilibration buffer (0.4% glucose, 2×SCC) for 5 mins and counter stained with 1 mg/ml DAPI (4′,6-diamidino-2-phenylindole; Life Technologies). Coverslips were mounted in glox buffer (3.7 mg/ml glucose oxidase, 1 U catalase) and imaged.

In a further assay the test system is H2A.XpSer139. The assay can be described thus: Immunofluorescence staining of double strand breaks (H2A.XpSer139). As to the method: as §1
(§2) For each experiment, cells were infected or treated with drugs on coverslips, fixed for 10 mins in fresh 4% paraformaldehyde at room temperature, then washed 3 times in PBS and permeabilised for 10 mins in ice-cold methanol at −20° C. Coverslips were washed once in PBS and incubated in blocking buffer (5% goat serum, 0.3% Triton-X100 in PBS) for 60 mins at room temperature. […] Double strand breaks were detected using rabbit polyclonal anti-phospho-histone H2A.X Ser139 (Cell Signaling). Activated ATM was detected using rabbit monoclonal anti-phospho-ATM Ser1981 (Cell Signaling). The ability of p53 to regulate apoptosis was detected using rabbit polyclonal anti-phospho-p53 Ser46 (Cell Signaling). Viral p24 was detected using mouse monoclonal anti-HIV-1-p24 (AIDS Research and Reference Reagent Program, Division of AIDS, NIAID, NIH). HuR was detected using mouse monoclonal anti-HuR 3A2 (Santa Cruz Biotechnology). hnRNP-K was detected using goat polyclonal anti-hnRNP-K P-20 (Santa Cruz Biotechnology). […]

The next assay relates to ATMpSer1981. As to the kind of experiment: Immunofluorescence staining of activated ATM (ATMpSer1981). The settings on record: Ghost(3) cells, Doxorubicin 500 nM, no HIV. How it is done: as §1, with “Coverslips were washed 3 times (5 mins each on an orbital shaker) with wash buffer (0.05% Tween20 in PBS). Coverslips were incubated in equilibration buffer (0.4% glucose, 2×SCC) for 5 mins and counter stained with 1 mg/ml DAPI (4′,6-diamidino-2-phenylindole; Life Technologies). Coverslips were mounted in glox buffer (3.7 mg/ml glucose oxidase, 1 U catalase) and imaged.” left out

Another assay relates to HuR. As to the kind of experiment: Immunofluorescence of HuR cellular location in Ghost(3) cells. The settings on record: Ghost(3) cells, Doxorubicin-treated, no HIV. As to the method:
as §1, with “Coverslips were washed 3 times (5 mins each on an orbital shaker) with wash buffer (0.05% Tween20 in PBS), followed by incubation with secondary antibodies conjugated to either Atto550 or Atto565 or Atto647 for 60 mins at room temperature. Coverslips were washed 3 times (5 mins each on an orbital shaker) with wash buffer (0.05% Tween20 in PBS). Coverslips were incubated in equilibration buffer (0.4% glucose, 2×SCC) for 5 mins and counter stained with 1 mg/ml DAPI (4′,6-diamidino-2-phenylindole; Life Technologies). Coverslips were mounted in glox buffer (3.7 mg/ml glucose oxidase, 1 U catalase) and imaged.” left out
as §2, with “C.” for “C. Coverslips were washed once in PBS and incubated in blocking buffer (5% goat serum, 0.3% Triton-X100 in PBS) for 60 mins at room temperature.”

For `COc1cccc2c1C(=O)c1c(O)c3c(c(O)c1C2=O)C[C@@](O)(C(=O)CO)C[C@@H]3O[C@H]1C[C@H](N)[C@H](O)[C@H](C)O1` [Doxorubicin], the “cellular location of hnRNP-K” value was “nuclear hnRNP-K within 2 hours; also recorded: detected in the nucleus of Doxorubicin-treated cells between 2 and 4 hours post-treatment; also recorded: nuclear hnRNPK within 2 hours” in the assay with hnRNP-K (Ghost(3) cells, drug only, no HIV infection); “hnRNPK localized to the nucleus; also recorded: nuclear hnRNPK within 3 hours of chemical-induced DNA damage” in the assay on hnRNP-K (cells concurrently infected and treated with Maraviroc, Tenofovir or Raltegravir, Doxorubicin added afterwards). The entries for the “DSBs (H2A.XpSer139 staining)” value with H2A.XpSer139 (Ghost(3) cells infected with HIV-1 24 hours prior to Doxorubicin treatment) and with H2A.XpSer139 (Ghost(3) cells infected with HIV-1 after exposure to Doxorubicin) were “numerous DSBs” and “extensive H2A.XpSer139 staining”, respectively. Moreover, in the assay with H2A.XpSer139 (uninfected Ghost(3) cells, lethal dose of Doxorubicin (500 nM)), the “H2A.X (pSer139) staining of DSBs” value was “extensive H2A.X staining within 8 hours of treatment; also recorded: extensive H2A.XpSer139 staining”. The “phosphorylation of ATM at Ser1981” value in the assay with ATMpSer1981 was “phosphorylation of both ATMpSer1981 and p53pSer46 in the nucleus within 8 hours; also recorded: Phosphorylated ATM is detected”. Further, the “cellular location of HuR” value in the assay with HuR was “cytoplasmic HuR within 8 hours; also recorded: moved from the nucleus into the cytoplasm within 8 hours of treatment”.
